From PubChem BioAssay (NCI)
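Cultured in 96-well plates, cells were exposed to test compound for 48 hours across five concentrations. The concentration for 50% growth inhibition is given as GI50. TGI marks complete inhibition of growth.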

Experiments:
Test in all cases: DTP human tumour cell line panel, 48 h
[1] = test system: 786-0 renal
[2] = test system: A498 renal
[3] = test system: A549 NSCLC
[4] = test system: ACHN renal
[5] = test system: BT-549 breast
[6] = test system: CAKI-1 renal
[7] = test system: CCRF-CEM leukemia
[8] = test system: COLO 205 colon
[9] = test system: DU-145 prostate
[10] = test system: EKVX NSCLC
[11] = test system: HCC-2998 colon
[12] = test system: HCT-116 colon
[13] = test system: HCT-15 colon
[14] = test system: HL-60(TB) leukemia
[15] = test system: HOP-62 NSCLC
[16] = test system: HOP-92 NSCLC
[17] = test system: HS 578T breast
[18] = test system: HT29 colon
[19] = test system: K-562 leukemia
[20] = test system: KM12 colon
[21] = test system: LOX IMVI melanoma
[22] = test system: M14 melanoma
[23] = test system: MALME-3M melanoma
[24] = test system: MCF7 breast
[25] = test system: MDA-MB-435
[26] = test system: MOLT-4 leukemia
[27] = test system: NCI-H226 lung

COc1ncc(-c2ccc3nccc(C#CCCCCC(=O)O)c3c2)cc1NS(=O)(=O)c1ccc(F)cc1F
GI50 [1]: 1040 nM
TGI [1]: 17300 nM
GI50 [2]: 40.8 nM
TGI [2]: 799 nM
GI50 [3]: 557 nM
TGI [3]: > 100000 nM
GI50 [4]: 2730 nM
TGI [4]: > 100000 nM
GI50 [5]: 449 nM
TGI [5]: 8920 nM
GI50 [6]: 819 nM
TGI [6]: > 100000 nM
GI50 [7]: 1210 nM
TGI [7]: > 100000 nM
GI50 [8]: 108 nM
TGI [8]: 30200 nM
GI50 [9]: 2090 nM
TGI [9]: > 100000 nM
GI50 [10]: 1110 nM
TGI [10]: 45100 nM
GI50 [11]: 626 nM
TGI [11]: > 100000 nM
GI50 [12]: 6850 nM
TGI [12]: > 100000 nM
GI50 [13]: 362 nM
TGI [13]: > 100000 nM
GI50 [14]: 283 nM
TGI [14]: 59100 nM
GI50 [15]: 1160 nM
TGI [15]: > 100000 nM
GI50 [16]: 15.8 nM
TGI [16]: 620 nM
GI50 [17]: 65.7 nM
TGI [17]: 2340 nM
GI50 [18]: 82.6 nM
TGI [18]: > 100000 nM
GI50 [19]: 17200 nM
TGI [19]: > 100000 nM
GI50 [20]: 2880 nM
TGI [20]: > 100000 nM
GI50 [21]: 941 nM
TGI [21]: 18900 nM
GI50 [22]: 1610 nM
TGI [22]: > 100000 nM
GI50 [23]: 76.1 nM
TGI [23]: 916 nM
GI50 [24]: 15 nM
TGI [24]: > 100000 nM
GI50 [25]: 845 nM
TGI [25]: > 100000 nM
GI50 [26]: 520 nM
TGI [26]: 33500 nM
GI50 [27]: 4730 nM
TGI [27]: > 100000 nM
